Measured values reported in patent publication US7994209B2, “3-phenoxymethylpyrrolidine compounds” (Theravance, Inc., priority 2009, dated 2011).

What was measured:
[1] = target: hNET (Homo sapiens, UniProt P23975); assay: fluorescence-based norepinephrine reuptake inhibition assay (Tsuruda et al. 2010; data indicated by an asterisk); type: cell-based; parameters: expressed in transfected cells; host or cells: HEK-293; details: norepinephrine reuptake inhibition, fluorescence-based assay (values with asterisk); read-out: NET pIC50 (converted)
Sequence of hNET (P23975 whole entry): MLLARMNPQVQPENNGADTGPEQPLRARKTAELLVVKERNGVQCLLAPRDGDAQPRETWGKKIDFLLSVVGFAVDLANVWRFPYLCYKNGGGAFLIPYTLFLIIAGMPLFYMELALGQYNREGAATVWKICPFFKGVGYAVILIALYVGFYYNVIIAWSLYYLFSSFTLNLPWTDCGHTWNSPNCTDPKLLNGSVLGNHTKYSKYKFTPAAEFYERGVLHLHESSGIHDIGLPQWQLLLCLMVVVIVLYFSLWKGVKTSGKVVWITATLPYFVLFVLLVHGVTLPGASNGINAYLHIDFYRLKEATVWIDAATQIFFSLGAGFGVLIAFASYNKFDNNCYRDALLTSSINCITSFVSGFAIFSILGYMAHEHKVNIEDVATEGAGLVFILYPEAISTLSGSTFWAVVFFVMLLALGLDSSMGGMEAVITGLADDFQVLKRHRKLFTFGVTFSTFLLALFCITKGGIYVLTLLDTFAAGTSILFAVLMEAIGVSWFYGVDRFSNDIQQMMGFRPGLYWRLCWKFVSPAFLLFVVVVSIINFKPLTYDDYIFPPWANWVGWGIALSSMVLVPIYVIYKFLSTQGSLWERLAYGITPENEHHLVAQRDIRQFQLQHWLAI

[2] = target: hSERT (Homo sapiens, UniProt P31645); assay: fluorescence-based serotonin reuptake inhibition assay (Tsuruda et al. 2010; data indicated by an asterisk); type: cell-based; parameters: expressed in transfected cells; host or cells: HEK-293; details: fluorescence-based assay (values with asterisk), read-out: SERT pIC50 (converted)
Sequence of hSERT (P31645 whole entry): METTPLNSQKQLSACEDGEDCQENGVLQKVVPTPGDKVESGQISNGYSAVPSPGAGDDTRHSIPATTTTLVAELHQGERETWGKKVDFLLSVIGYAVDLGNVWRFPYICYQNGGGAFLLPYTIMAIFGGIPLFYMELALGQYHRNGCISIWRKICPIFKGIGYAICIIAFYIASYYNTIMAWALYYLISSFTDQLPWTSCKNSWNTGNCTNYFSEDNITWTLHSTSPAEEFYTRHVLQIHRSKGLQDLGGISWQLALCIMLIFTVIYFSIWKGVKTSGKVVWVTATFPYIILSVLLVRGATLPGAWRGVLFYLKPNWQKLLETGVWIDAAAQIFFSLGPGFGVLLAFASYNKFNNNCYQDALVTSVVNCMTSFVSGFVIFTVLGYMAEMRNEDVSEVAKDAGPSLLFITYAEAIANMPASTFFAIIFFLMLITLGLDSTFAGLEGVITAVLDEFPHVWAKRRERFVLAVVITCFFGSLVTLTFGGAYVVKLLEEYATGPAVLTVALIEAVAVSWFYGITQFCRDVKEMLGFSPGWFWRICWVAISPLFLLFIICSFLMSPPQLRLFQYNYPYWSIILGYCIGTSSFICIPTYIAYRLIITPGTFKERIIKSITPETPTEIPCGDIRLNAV

| Structure (SMILES) | IC50 [1] [nM] | IC50 [2] [nM] |
| --- | --- | --- |
| CC[C@@H](Oc1cccc(Cl)c1C(F)(F)F)[C@H]1CCNC1 [Example 2-74, (S)-3-[(R)-1-(3-Chloro-2-trifluoromethylphenoxy)propyl]pyrrolidine] | ≤ 100 | ≤ 10 |
| CCC[C@@H](Oc1cc(F)cc(Cl)c1)[C@H]1CCNC1 [Example 4-10, (S)-3-[(R)-1-(3-Chloro-5-fluorophenoxy)butyl]pyrrolidine] | ≤ 10 | ≤ 100 |
| CCC[C@H](Oc1cc(F)cc(Cl)c1)[C@H]1CCNC1 [Example 4-11, (S)-3-[(S)-1-(3-Chloro-5-fluorophenoxy)butyl]pyrrolidine] | ≤ 10 | ≤ 100 |
| CCC[C@@H](Oc1ccc(Cl)c(Cl)c1)[C@@H]1CCNC1 [Example 4-14, (R)-3-[(R)-1-(3,4-Dichlorophenoxy)butyl]pyrrolidine] | ≤ 100 | ≤ 10 |
| CCC[C@@H](Oc1ccc(Cl)c(F)c1)[C@H]1CCNC1 [Example 4-17, (S)-3-[(R)-1-(4-Chloro-3-fluorophenoxy)butyl]pyrrolidine] | ≤ 100 | ≤ 10 |
| CCC[C@@H](Oc1c(Cl)ccc(Cl)c1Cl)[C@H]1CCNC1 [Example 4-26, (S)-3-[(R)-1-(2,3,6-Trichlorophenoxy)butyl]pyrrolidine] | ≤ 10 | ≤ 10 |
| CCC[C@H](Oc1ccc(Cl)c(F)c1Cl)[C@H]1CCNC1 [Example 4-39, (S)-3-[(S)-1-(2,4-Dichloro-3-fluorophenoxy)butyl]pyrrolidine] | ≤ 10 | ≤ 10 |
| CCC[C@H](Oc1c(F)cc(Cl)cc1Cl)[C@H]1CCNC1 [Example 4-40, (S)-3-[(S)-1-(2,4-Dichloro-6-fluorophenoxy)butyl]pyrrolidine] | ≤ 10 | ≤ 10 |
| CCC[C@H](Oc1c(C)cc(Cl)cc1Cl)[C@H]1CCNC1 [Example 4-41, (S)-3-[(S)-1-(2,4-Dichloro-6-methylphenoxy)butyl]pyrrolidine] | ≤ 10 | ≤ 10 |
| CCC[C@@H](Oc1c(F)ccc(OC)c1Cl)[C@H]1CCNC1 [Example 4-42, (S)-3-[(R)-1-(2-Chloro-6-fluoro-3-methoxyphenoxy)butyl]pyrrolidine] | ≤ 10 | ≤ 10 |
| CCC[C@@H](Oc1cccc(F)c1F)[C@H]1CCNC1 [Example 4-44, (S)-3-[(R)-1-(2,3-Difluorophenoxy)butyl]pyrrolidine] | ≤ 10 | ≤ 100 |
| CCC[C@H](Oc1cccc(F)c1F)[C@H]1CCNC1 [Example 4-45, (S)-3-[(S)-1-(2,3-Difluorophenoxy)butyl]pyrrolidine] | ≤ 10 | ≤ 100 |
| CCC[C@@H](Oc1cccc(Cl)c1F)[C@H]1CCNC1 [Example 4-46, (S)-3-[(R)-1-(3-Chloro-2-fluorophenoxy)butyl]pyrrolidine] | ≤ 10 | ≤ 100 |
| CCC[C@@H](Oc1cccc(Cl)c1F)[C@@H]1CCNC1 [Example 4-47, (R)-3-[(R)-1-(3-Chloro-2-fluorophenoxy)butyl]pyrrolidine] | ≤ 10 | ≤ 100 |
| CCC[C@H](Oc1cccc(Cl)c1F)[C@H]1CCNC1 [Example 4-48, (S)-3-[(S)-1-(3-Chloro-2-fluorophenoxy)butyl]pyrrolidine] | ≤ 10 | ≤ 100 |
| CCC[C@@H](Oc1ccc(F)c(F)c1F)[C@H]1CCNC1 [Example 4-49, (S)-3-[(R)-1-(2,3,4-Trifluorophenoxy)butyl]pyrrolidine] | ≤ 100 | ≤ 10 |
| CCC[C@@H](Oc1ccc(Cl)c(Cl)c1F)[C@H]1CCNC1 [Example 4-51, (S)-3-[(R)-1-(3,4-Dichloro-2-fluorophenoxy)butyl]pyrrolidine] | ≤ 10 | ≤ 10 |
| CCC[C@H](Oc1ccc(Cl)c(Cl)c1F)[C@H]1CCNC1 [Example 4-52, (S)-3-[(S)-1-(3,4-Dichloro-2-fluorophenoxy)butyl]pyrrolidine] | ≤ 10 | ≤ 10 |
| CCC[C@H](Oc1c(F)cc(Cl)cc1F)[C@H]1CCNC1 [Example 4-53, (S)-3-[(S)-1-(4-Chloro-2,6-difluorophenoxy)butyl]pyrrolidine] | ≤ 10 | ≤ 10 |
| CCC[C@H](Oc1cccc(C)c1C)[C@H]1CCNC1 [Example 4-62, (S)-3-[(S)-1-(2,3-Dimethylphenoxy)butyl]pyrrolidine] | ≤ 10 | ≤ 10 |

More lines, now with the values ahead:

| IC50 [1] [nM] | IC50 [2] [nM] | Structure (SMILES) |
| --- | --- | --- |
| ≤ 10 | ≤ 10 | CC[C@H](Oc1cccc(Cl)c1C)[C@H]1CCNC1 [Example 2-64, (S)-3-[(S)-1-(3-Chloro-2-methylphenoxy)propyl]pyrrolidine] |
| ≤ 10 | ≤ 10 | CC[C@@H](Oc1cccc(Cl)c1C)[C@H]1CCNC1 [Example 2-65, (S)-3-[(R)-1-(3-Chloro-2-methylphenoxy)propyl]pyrrolidine] |
| ≤ 100 | ≤ 10 | CCC[C@@H](Oc1ccc(Cl)c(C)c1)[C@H]1CCNC1 [Example 4-15, (S)-3-[(R)-1-(4-Chloro-3-methylphenoxy)butyl]pyrrolidine] |
| ≤ 10 | ≤ 10 | CCC[C@H](Oc1ccc(Cl)c(C)c1)[C@H]1CCNC1 [Example 4-16, (S)-3-[(S)-1-(4-Chloro-3-methylphenoxy)butyl]pyrrolidine] |
| ≤ 100 | ≤ 100 | CCC[C@@H](Oc1ccc(Cl)cc1C)[C@@H]1CCNC1 [Example 4-61, (R)-3-[(R)-1-(4-Chloro-2-methylphenoxy)butyl]pyrrolidine] |
| ≤ 10 | ≤ 10 | CCC[C@H](Oc1ccc(Cl)cc1OC)[C@H]1CCNC1 [Example 4-72, (S)-3-[(S)-1-(4-Chloro-2-methoxyphenoxy)butyl]pyrrolidine] |
| ≤ 10 | ≤ 100 | CC(C)[C@H](Oc1cccc(Cl)c1F)[C@H]1CCNC1 [Example 6-3, (S)-3-[(S)-1-(3-Chloro-2-fluorophenoxy)-2-methylpropyl]pyrrolidine] |
| ≤ 10 | ≤ 10 | CC(C)[C@@H](Oc1cccc(Cl)c1F)[C@H]1CCNC1 [Example 6-4, (S)-3-[(R)-1-(3-Chloro-2-fluorophenoxy)-2-methylpropyl]pyrrolidine] |
| ≤ 10 | ≤ 10 | CC(C)[C@H](Oc1c(F)cc(Cl)cc1F)[C@H]1CCNC1 [Example 6-5, (S)-3-[(S)-1-(4-Chloro-2,6-difluorophenoxy)-2-methylpropyl]pyrrolidine] |
| ≤ 100 | ≤ 100 | CC(C)[C@@H](Oc1c(F)cc(Cl)cc1F)[C@@H]1CCNC1 [Example 6-6, (R)-3-[(R)-1-(4-Chloro-2,6-difluorophenoxy)-2-methylpropyl]pyrrolidine] |
| ≤ 100 | ≤ 10 | CC(C)[C@@H](Oc1ccc(Cl)c(Cl)c1F)[C@H]1CCNC1 [Example 6-8, (S)-3-[(R)-1-(3,4-Dichloro-2-fluorophenoxy)-2-methylpropyl]pyrrolidine] |
| ≤ 100 | ≤ 10 | CC(C)[C@@H](Oc1ccc(Cl)c(Cl)c1F)[C@@H]1CCNC1 [Example 6-9, (R)-3-[(R)-1-(3,4-Dichloro-2-fluorophenoxy)-2-methylpropyl]pyrrolidine] |
| ≤ 100 | ≤ 100 | CC(C)[C@H](Oc1cccc(Cl)c1Cl)[C@@H]1CCNC1 [Example 6-16, (R)-3-[(S)-1-(2,3-Dichlorophenoxy)-2-methylpropyl]pyrrolidine] |
| ≤ 100 | ≤ 100 | CC(C)[C@H](Oc1cccc(F)c1Cl)[C@@H]1CCNC1 [Example 6-20, (R)-3-[(S)-1-(2-Chloro-3-fluorophenoxy)-2-methylpropyl]pyrrolidine] |
| ≤ 100 | ≤ 10 | CC(C)[C@@H](Oc1ccc(Cl)cc1Cl)[C@@H]1CCNC1 [Example 6-23, (R)-3-[(R)-1-(2,4-Dichlorophenoxy)-2-methylpropyl]pyrrolidine] |
| ≤ 100 | ≤ 10 | CC(C)[C@H](Oc1ccc(C(F)(F)F)cc1Cl)[C@H]1CCNC1 [Example 6-25, (S)-3-[(S)-1-(2-Chloro-4-trifluoromethylphenoxy)-2-methylpropyl]pyrrolidine] |
| ≤ 100 | ≤ 100 | CC(C)[C@@H](Oc1cc(Cl)ccc1Cl)[C@H]1CCNC1 [Example 6-26, (S)-3-[(R)-1-(2,5-Dichlorophenoxy)-2-methylpropyl]pyrrolidine] |
| ≤ 100 | ≤ 10 | CC(C)[C@@H](Oc1c(F)cc(Cl)cc1Cl)[C@H]1CCNC1 [Example 6-31, (S)-3-[(R)-1-(2,4-Dichloro-6-fluorophenoxy)-2-methylpropyl]pyrrolidine] |
| ≤ 316 | ≤ 100 | CC(C)[C@H](Oc1c(F)cc(Cl)cc1Cl)[C@@H]1CCNC1 [Example 6-32, (R)-3-[(S)-1-(2,4-Dichloro-6-fluorophenoxy)-2-methylpropyl]pyrrolidine] |
| ≤ 10 | ≤ 10 | Cc1cc(Cl)cc(Cl)c1O[C@@H](C(C)C)[C@H]1CCNC1 [Example 6-33, (S)-3-[(S)-1-(2,4-Dichloro-6-methylphenoxy)-2-methylpropyl]pyrrolidine] |
| ≤ 10 | ≤ 10 | COc1ccc(F)c(O[C@H](C(C)C)[C@@H]2CCNC2)c1Cl [Example 6-37, (R)-3-[(R)-1-(2-Chloro-6-fluoro-3-methoxyphenoxy)-2-methylpropyl]pyrrolidine] |
| ≤ 100 | ≤ 10 | Cc1c(Cl)cccc1O[C@H](C(C)C)[C@@H]1CCNC1 [Example 6-41, (R)-3-[(R)-1-(3-Chloro-2-methylphenoxy)-2-methylpropyl]pyrrolidine] |
| ≤ 100 | ≤ 10 | Cc1c(Cl)cccc1O[C@@H](C(C)C)[C@@H]1CCNC1 [Example 6-42, (R)-3-[(S)-1-(3-Chloro-2-methylphenoxy)-2-methylpropyl]pyrrolidine] |
| ≤ 100 | ≤ 100 | Cc1cc(Cl)ccc1O[C@H](C(C)C)[C@@H]1CCNC1 [Example 6-46, (R)-3-[(R)-1-(4-Chloro-2-methylphenoxy)-2-methylpropyl]pyrrolidine] |
